Test results taken from patent US10883996B2, “Methods of identifying signaling modulators of the trimeric TNFa” (UCB BIOPHARMA SRL, priority 2015, dated 2021).
“Also recorded” adds a separate entry of the source.

Molecular target: T1, TNFα trimer / TNFR1 (Homo sapiens, UniProt P01375)
T1 construct: human TNFα residues V77-L233 followed by two additional repeats; human TNFα residues D86-L233 linked together by Ser-Gly-Ser
Experiment: Analytical size exclusion chromatography of TNFα/TNFR1/compound complexes, protocol 2
Format: binding
Conditions: compound 200 μM (1:10 trimers:compound); 3.5 fold excess of receptors
Experimental: Size exclusion chromatography was used to determine the number of TNFR1 receptors bound to TNFα in the absence or presence of different compounds. Compound (2) was tested under the conditions described in protocol 1 below. Compound (5) was tested as described in protocol 2.
Compound (5) was added to 20 μM of TNFα trimer at a final concentration of 200 μM (ratio of 1:10 trimers:compound) with DMSO concentration held constant at 2.0%. The sample of TNFα and compound were incubated overnight at a temperature of 4° C. Receptors at a final concentration of 35 μM were added to 10 μM trimer-compound complex (3.5 fold excess of receptors over the trimer-compound complex). The final concentration of DMSO was 1.0%. The mixture was incubated for 1 hour at 22° C.
The conditions for analytical size exclusion using HPLC were as follows: injection volume: 50 μl; Superdex 200HR 10/300, L×I.D. 30 cm×10 mm column, 13-15 μm particle size; and a buffer of 10 mM HEPES, pH 7.5, 150 mM NaCl.
The TNFα was a single polypeptide chain of trimeric human TNFα composed of human TNFα residues V77-L233 followed by two additional repeats of human TNFα residues D86-L233 linked together by Ser-Gly-Ser (sequences are based on UniProt […]). Human TNFR1 was (V43-N184)(N54D, C182S) based on sequence UniProt P19438. […]

T1 sequence (P01375 with tags, fused parts or gaps): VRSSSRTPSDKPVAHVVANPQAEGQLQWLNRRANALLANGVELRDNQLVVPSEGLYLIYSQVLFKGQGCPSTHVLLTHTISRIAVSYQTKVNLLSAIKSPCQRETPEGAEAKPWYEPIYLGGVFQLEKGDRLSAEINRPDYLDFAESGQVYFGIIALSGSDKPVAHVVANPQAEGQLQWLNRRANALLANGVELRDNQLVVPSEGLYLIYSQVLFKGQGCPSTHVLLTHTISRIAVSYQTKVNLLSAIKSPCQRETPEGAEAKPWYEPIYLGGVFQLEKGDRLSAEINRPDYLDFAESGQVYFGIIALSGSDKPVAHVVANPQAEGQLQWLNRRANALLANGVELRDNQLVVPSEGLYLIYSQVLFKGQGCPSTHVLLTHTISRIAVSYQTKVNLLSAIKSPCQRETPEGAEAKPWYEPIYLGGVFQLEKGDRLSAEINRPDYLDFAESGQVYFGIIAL

In the case of `Cc1nc2cc(F)c(-c3cnc(N4CC(O)(C(F)(F)F)C4)nc3)cn2c1[C@@H](O)c1ccccc1OC(F)F` (single isomer, unassigned) [compound (5)], the “number of receptors binding per trimer (SEC peak position vs mutant TNFα controls)” value is reported as “a mixture of two receptors and one receptor; also recorded: moved closer to 1 receptor bound”.
